# Reference: paper PMC3879630 (Molecular & Cellular Proteomics : MCP, 2013)
# Where a chain is given by its changes, count along the chain named.
# Columns and labels:
# Experiment in all cases: biotin-switch assay, anti-GST western blot
# Format in all cases: binding
# [1] = biological target: T1, RNF11 (Homo sapiens, UniProt Q9Y3C5); settings: covalent (S-nitrosylation, Cys4); 100 μM GSNO, 1 h; GSH control
# T1 sequence (Q9Y3C5 1-154): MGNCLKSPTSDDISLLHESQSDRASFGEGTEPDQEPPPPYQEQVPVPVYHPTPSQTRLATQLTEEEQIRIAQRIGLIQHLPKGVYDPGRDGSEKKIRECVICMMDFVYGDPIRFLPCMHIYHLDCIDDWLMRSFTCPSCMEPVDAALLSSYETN
# [2] = biological target: T2, RNF141 (Homo sapiens, UniProt Q8WVD5, C82S); settings: covalent (S-nitrosylation of cysteine); 100 μM GSNO
# T2 sequence (Q8WVD5 1-230 C82S): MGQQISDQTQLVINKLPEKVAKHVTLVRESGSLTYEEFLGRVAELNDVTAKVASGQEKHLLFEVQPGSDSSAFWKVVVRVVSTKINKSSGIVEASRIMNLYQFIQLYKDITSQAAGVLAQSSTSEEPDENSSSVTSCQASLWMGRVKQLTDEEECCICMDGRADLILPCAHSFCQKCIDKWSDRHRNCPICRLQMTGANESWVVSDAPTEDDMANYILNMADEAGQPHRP
# [3] = biological target: T3, RNF41 (Homo sapiens, UniProt Q9H4P4, C106S); settings: covalent (S-nitrosylation of cysteine); 100 μM GSNO
# T3 sequence (Q9H4P4 1-317 C106S): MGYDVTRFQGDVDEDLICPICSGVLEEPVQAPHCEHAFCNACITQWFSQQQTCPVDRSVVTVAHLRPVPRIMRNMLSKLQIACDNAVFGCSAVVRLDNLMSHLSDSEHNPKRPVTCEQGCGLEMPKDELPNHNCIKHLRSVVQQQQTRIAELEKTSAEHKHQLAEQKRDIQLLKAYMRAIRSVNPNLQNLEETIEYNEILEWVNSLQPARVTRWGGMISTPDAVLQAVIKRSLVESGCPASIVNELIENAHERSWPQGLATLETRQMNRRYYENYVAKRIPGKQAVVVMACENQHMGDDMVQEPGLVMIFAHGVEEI
# [4] = biological target: T4, RNF41 (Homo sapiens, UniProt Q9H4P4, C134S); settings: covalent (S-nitrosylation of cysteine); 100 μM GSNO
# T4 sequence (Q9H4P4 1-317 C134S): T3 sequence (Q9H4P4 1-317 C106S) with S106C, C134S
# [5] = biological target: T5, RNF141 (Homo sapiens, UniProt Q8WVD5); settings: covalent (S-nitrosylation of cysteine); 100 μM GSNO
# T5 sequence (Q8WVD5 1-230): T2 sequence (Q8WVD5 1-230 C82S) with S82C
# [6] = biological target: T6, RNF41 (Homo sapiens, UniProt Q9H4P4, C238S); settings: covalent (S-nitrosylation of cysteine); 100 μM GSNO
# T6 sequence (Q9H4P4 1-317 C238S): T3 sequence (Q9H4P4 1-317 C106S) with S106C, C238S
# [7] = biological target: T7, RNF11 (Homo sapiens, UniProt Q9Y3C5, C4S); settings: covalent (S-nitrosylation of cysteine); 100 μM GSNO
# T7 sequence (Q9Y3C5 1-154 C4S): T1 sequence (Q9Y3C5 1-154) with C4S
structure (smiles),measurement,setting,value
N[C@@H](CCC(=O)N[C@@H](CSN=O)C(=O)NCC(=O)O)C(=O)O [GSNO],"biotin-switch assay, anti-GST western blot",[1],Cys4 is S-nitrosylated in RNF11
same,S-nitrosylation (BSM),[2],The C82S and C175S RNF141 proteins both show reduced S-nitrosylation compared with WT RNF141
same,S-nitrosylation (BSM),[3],The C106S RNF41 protein S-nitrosylation signal is dramatically reduced compared with WT RNF41
same,S-nitrosylation (BSM),[4],C134S and C238S mutants have minimal effect on the S-nitrosylation of RNF41
same,S-nitrosylation (BSM),[5],The C82S and C175S RNF141 proteins both show reduced S-nitrosylation compared with WT RNF141
same,S-nitrosylation (BSM),[6],C134S and C238S mutants have minimal effect on the S-nitrosylation of RNF41
same,S-nitrosylation (BSM),[7],The C4S RNF11 protein is not S-nitrosylated
